Source: ChEMBL document CHEMBL3045075, “Synthesis of ester and amide derivatives of 1-phenyl-3-(thiophen-3-yl)-1H-pyrazole-4-carboxylic acid and study of their anticancer activity” (Med Chem Res, 2013)
Calls of active or inactive are those of the source. No cut-off for these calls is given here.

How the values were obtained:
Raji = assay: Growth inhibition of Homo sapiens (human) Raji cells after 48 hr by MTT assay; format: functional, cell-based
HL-60 [1] = assay: Growth inhibition of Homo sapiens (human) HL60 cells after 48 hr by MTT assay; format: functional, cell-based; details: HL-60, 48 h
MDA-MB-231 [2] = assay: Anticancer activity against Homo sapiens (human) MDA-MB-231 cells assessed as cell viability at 50 uM after 48 hr by MTT assay (reference value: 100%); format: functional; details: MDA-MB-231, 48 h, read-out: Activity
MCF7 [3] = assay: Growth inhibition of Homo sapiens (human) MCF7 cells after 48 hr by MTT assay; format: functional, cell-based
HeLa [4] = assay: Growth inhibition of Homo sapiens (human) HeLa cells after 48 hr by MTT assay; format: functional, cell-based
MDA-MB-231 [5] = assay: Growth inhibition of Homo sapiens (human) MDA-MB-231 cells after 48 hr by MTT assay; format: functional, cell-based
HL-60 [6] = assay: Anticancer activity against Homo sapiens (human) HL60 cells assessed as cell viability at 50 uM after 48 hr by MTT assay (reference value: 100%); format: functional; details: HL-60, 48 h, read-out: Activity
MCF7 [7] = assay: Anticancer activity against Homo sapiens (human) MCF7 cells assessed as cell viability at 50 uM after 48 hr by MTT assay (reference value: 100%); format: functional; details: MCF7, 48 h, read-out: Activity
HeLa [8] = assay: Anticancer activity against Homo sapiens (human) HeLa cells assessed as cell viability at 50 uM after 48 hr by MTT assay (reference value: 100%); format: functional; details: read-out: Activity

Row | Structure (SMILES) | IC50 (Raji) | IC50 (HL-60 [1]) | GI50 (Raji) | GI50 (HL-60 [1]) | viability at 50 µM (MDA-MB-231 [2]) | growth inhibition (GI) (MCF7 [3]) | growth inhibition (GI) (HeLa [4]) | growth inhibition (GI) (MDA-MB-231 [5]) | viability at 50 µM (HL-60 [6]) | viability at 50 µM (MCF7 [7]) | viability at 50 µM (HeLa [8])
1 | O=C(c1cn(-c2ccccc2)nc1-c1ccsc1)N1CCN(c2ccncc2)CC1 | > 100 µM | > 100 µM | – | – | 87.4% | – | – | – | – | – | –
2 | O=C(c1cn(-c2ccccc2)nc1-c1ccsc1)N1CCC(Cc2ccccc2)CC1 | – | – | 25.2 µM | 28.3 µM | 82.8% | – | – | – | 39.1% | 90.7% | 71.8%
3 | O=C(c1cn(-c2ccccc2)nc1-c1ccsc1)N1CCN(c2ccc(C(F)(F)F)cc2)CC1 | – | – | 32 µM | 36.7 µM | 84.2% | – | – | – | – | 85.9% | 80.7%
4 | CN1CCN(C(=O)c2cn(-c3ccccc3)nc2-c2ccsc2)CC1 | > 100 µM | > 100 µM | – | – | – | – | – | – | – | – | –
5 | O=C(c1cn(-c2ccccc2)nc1-c1ccsc1)N1CCOCC1 | > 100 µM | > 100 µM | – | – | 77.6% | – | – | – | – | – | –
6 | O=C(NCc1ccccc1)c1cn(-c2ccccc2)nc1-c1ccsc1 | – | – | – | – | 85% | – | – | – | – | – | 82.3%
7 | O=C(c1cn(-c2ccccc2)nc1-c1ccsc1)N1CCN(c2ccccc2)CC1 | – | – | – | – | 81.4% | – | – | – | – | – | 67.9%
8 | O=C(O)c1cn(-c2ccccc2)nc1-c1ccsc1 | > 100 µM | > 100 µM | – | – | 80.9% | – | – | – | – | – | –

The next lines start with results.

Row | IC50 (Raji) | IC50 (HL-60 [1]) | GI50 (Raji) | GI50 (HL-60 [1]) | Structure (SMILES) | viability at 50 µM (MDA-MB-231 [2]) | growth inhibition (GI) (MCF7 [3]) | growth inhibition (GI) (HeLa [4]) | growth inhibition (GI) (MDA-MB-231 [5]) | viability at 50 µM (HL-60 [6]) | viability at 50 µM (MCF7 [7]) | viability at 50 µM (HeLa [8])
9 | > 100 µM | > 100 µM | – | – | O=C(Oc1ccc(-c2ccccc2)cc1)c1cn(-c2ccccc2)nc1-c1ccsc1 | – | inactive | inactive | inactive | – | – | –
10 | > 100 µM | > 100 µM | – | – | COc1ccc(OC(=O)c2cn(-c3ccccc3)nc2-c2ccsc2)cc1 | – | inactive | inactive | inactive | – | – | –
11 | > 100 µM | > 100 µM | – | – | CCc1ccc(OC(=O)c2cn(-c3ccccc3)nc2-c2ccsc2)cc1 | – | inactive | inactive | inactive | – | – | –
12 | > 100 µM | > 100 µM | – | – | Cc1cccc(C(C)C)c1OC(=O)c1cn(-c2ccccc2)nc1-c1ccsc1 | – | inactive | inactive | inactive | – | – | –
13 | > 100 µM | > 100 µM | – | – | CC(C)c1cccc(OC(=O)c2cn(-c3ccccc3)nc2-c2ccsc2)c1 | – | inactive | inactive | inactive | – | – | –
14 | > 100 µM | > 100 µM | – | – | O=C(Oc1ccc2ccccc2c1)c1cn(-c2ccccc2)nc1-c1ccsc1 | – | inactive | inactive | inactive | – | – | –
